Test results as given in ChEMBL document CHEMBL3217627, “Designing glucokinase activators with reduced hypoglycemia risk: discovery of N,N-dimethyl-5-(2-methyl-6-((5-methylpyrazin-2-yl)-carbamoyl)benzofuran-4-yloxy)pyrimidine-2-carboxamide as a clinical candidate for the treatment of type 2 diabetes mellitus” (Medchemcomm, 2011).
≈ marks a conversion by molar mass, not a printed value. Calls of active or inactive are those of the source. The rule behind the calls is not given here.

Experiments:
[1] = Passive permeability across RRCK cells; type: ADME, cell-based, Canis lupus familiaris, MDCKII-LE; details: dog, MDCK; read-out: permeability
[2] = Kinetic solubility of the compound; type: physicochemical; details: read-out: Kinetic_solubility
[3] = target: Voltage-gated inwardly rectifying potassium channel KCNH2 (Homo sapiens, UniProt Q12809); test: Inhibition of dofetilide binding to human ERG
[4] = Intrinsic clearance in human liver microsomes; type: ADME; details: read-out: CLH
[5] = target: T1, Hexokinase-4 (Homo sapiens, UniProt P35557)
T1 sequence (P35557 whole entry): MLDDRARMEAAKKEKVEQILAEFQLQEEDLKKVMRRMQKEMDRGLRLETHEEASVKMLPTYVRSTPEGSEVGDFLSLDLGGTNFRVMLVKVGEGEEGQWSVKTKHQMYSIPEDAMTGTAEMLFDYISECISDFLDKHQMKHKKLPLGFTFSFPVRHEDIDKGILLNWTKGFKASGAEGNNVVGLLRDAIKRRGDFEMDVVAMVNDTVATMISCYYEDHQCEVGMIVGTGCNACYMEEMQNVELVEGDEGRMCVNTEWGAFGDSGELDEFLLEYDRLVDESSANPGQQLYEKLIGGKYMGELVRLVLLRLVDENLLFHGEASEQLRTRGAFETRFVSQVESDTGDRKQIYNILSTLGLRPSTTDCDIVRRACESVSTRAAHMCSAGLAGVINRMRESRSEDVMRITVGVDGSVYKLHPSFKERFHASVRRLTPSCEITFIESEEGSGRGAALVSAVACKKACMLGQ
Description: Activation of recombinant human glucokinase assessed as formation of glucose-6-phosphate by G6PDH/NADP coupled assay

[6] = target: T2, Hexokinase-4 (Rattus norvegicus, UniProt P17712); test: Activation of rat glucokinase
T2 sequence (P17712 whole entry): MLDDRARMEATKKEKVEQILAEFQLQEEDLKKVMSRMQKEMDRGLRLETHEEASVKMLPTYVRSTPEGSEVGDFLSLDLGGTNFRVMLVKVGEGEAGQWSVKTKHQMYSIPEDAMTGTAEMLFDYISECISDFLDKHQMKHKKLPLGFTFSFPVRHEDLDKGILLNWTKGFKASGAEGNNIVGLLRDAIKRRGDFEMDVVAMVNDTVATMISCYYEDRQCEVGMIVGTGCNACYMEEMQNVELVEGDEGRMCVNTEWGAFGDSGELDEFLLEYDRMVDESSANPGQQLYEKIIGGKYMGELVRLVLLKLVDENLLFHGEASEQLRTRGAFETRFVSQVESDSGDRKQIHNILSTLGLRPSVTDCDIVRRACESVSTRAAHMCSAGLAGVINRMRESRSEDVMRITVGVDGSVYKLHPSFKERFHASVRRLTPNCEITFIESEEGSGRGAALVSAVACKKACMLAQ

[7] = test system: Rattus norvegicus; test: Toxicity in po dosed Sprague-Dawley rat assessed as reduction in fasting plasma glucose level administered for 60 mins measured over first hour prior to OGTT; type: organism-based; details: in vivo, 1 h
[8] = test system: Rattus norvegicus; test: Toxicity in Sprague-Dawley rat assessed as hypoglycemic level at 30 to 100 mg/kg, po administered for 60 mins measured over first hour prior to OGTT; type: organism-based; design: dose 30-100 mg/kg, route oral; details: in vivo, 1 h
[9] = test system: Rattus norvegicus; test: Antidiabetic activity in po dosed Sprague-Dawley rat assessed as reduction of post-prandial glucose excursion administered for 60 mins followed by glucose challenge measured up to 120 mins by OGTT; type: functional, organism-based
[10] = Selectivity ratio of EC50 for rat glucokinase to EC50 for human glucokinase
[11] = target: hERG (KCNH2) (Homo sapiens, UniProt Q12809); test: Inhibition of dofetilide binding to human ERG at 10 uM relative to control; details: probe dofetilide
[12] = test system: Rattus norvegicus; test: Antidiabetic activity in Sprague-Dawley rat assessed as reduction of post-prandial glucose excursion at 3 to 100 mg/kg, po administered for 60 mins followed by glucose challenge measured up to 120 mins by OGTT; type: functional, organism-based

Chain of hERG (KCNH2) (Q12809 whole entry): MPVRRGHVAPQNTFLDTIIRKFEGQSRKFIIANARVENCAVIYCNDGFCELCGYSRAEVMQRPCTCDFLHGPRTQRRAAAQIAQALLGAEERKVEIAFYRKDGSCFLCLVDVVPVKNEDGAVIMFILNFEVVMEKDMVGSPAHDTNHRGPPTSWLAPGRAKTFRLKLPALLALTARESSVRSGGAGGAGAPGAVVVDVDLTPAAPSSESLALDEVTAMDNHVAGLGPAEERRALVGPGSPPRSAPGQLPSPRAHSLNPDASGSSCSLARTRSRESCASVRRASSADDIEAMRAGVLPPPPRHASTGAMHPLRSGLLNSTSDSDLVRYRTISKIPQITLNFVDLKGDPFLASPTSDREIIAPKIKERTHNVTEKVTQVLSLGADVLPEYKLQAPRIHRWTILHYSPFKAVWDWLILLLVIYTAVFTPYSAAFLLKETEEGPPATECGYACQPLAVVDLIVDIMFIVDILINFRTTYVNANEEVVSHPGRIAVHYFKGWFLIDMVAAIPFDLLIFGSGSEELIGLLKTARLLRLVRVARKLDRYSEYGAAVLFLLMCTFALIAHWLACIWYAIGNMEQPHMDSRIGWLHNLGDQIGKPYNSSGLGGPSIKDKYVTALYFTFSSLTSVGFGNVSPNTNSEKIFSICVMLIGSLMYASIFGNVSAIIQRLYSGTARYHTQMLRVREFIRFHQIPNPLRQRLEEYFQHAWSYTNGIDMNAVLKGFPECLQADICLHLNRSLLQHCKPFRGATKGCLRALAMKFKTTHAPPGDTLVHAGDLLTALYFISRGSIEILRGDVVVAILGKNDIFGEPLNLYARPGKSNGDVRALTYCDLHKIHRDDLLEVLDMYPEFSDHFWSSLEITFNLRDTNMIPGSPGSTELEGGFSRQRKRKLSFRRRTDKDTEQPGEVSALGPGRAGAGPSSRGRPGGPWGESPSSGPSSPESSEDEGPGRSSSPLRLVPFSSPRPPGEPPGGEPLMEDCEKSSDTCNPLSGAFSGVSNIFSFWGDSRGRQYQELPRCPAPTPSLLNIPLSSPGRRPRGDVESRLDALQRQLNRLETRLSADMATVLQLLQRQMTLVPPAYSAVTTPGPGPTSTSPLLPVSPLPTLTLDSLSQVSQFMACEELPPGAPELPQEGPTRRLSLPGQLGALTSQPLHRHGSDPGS
Chain of Voltage-gated inwardly rectifying potassium channel KCNH2 (Q12809 whole entry): as above

Structure (SMILES) | Papp [1] [×10⁻⁶ cm/s] | solubility kinetic [2] [µM] | CLint scaled [4] [mL/min/kg] | EC50 [5] [nM] | EC50 [6] [nM] | inhibition at 10 µM [11] [%] | also measured
Cc1cnc(NC(=O)c2cc(Oc3ccc(C#N)cc3)c3cc(C)oc3c2)cn1 | 1.5 | 2 (≈ 0.769 µg/mL) | 29 | 3060 | – | – | IC50 [3]: 4 µM
Cc1cnc(NC(=O)c2cc(Oc3ccc(S(C)(=O)=O)cc3)c3cc(C)oc3c2)cn1 | 7.6 | 3 (≈ 1.31 µg/mL) | 13 | 870 | – | – | IC50 [3]: 22 µM
Cn1ccc(NC(=O)c2cc(Oc3ccc(C(=O)N4CCC4)c(F)c3)c3c(c2)OC(C)(C)C3)n1 | – | – | – | 27 | 50 | – | Activity [7]: Dose-dependent effect; Activity [8]: < 60 mg/dL; Activity [9]: Dose-dependent effect; Ratio EC50 [10]: < 4
Cc1cc2c(Oc3cnc(C(=O)N(C)C)cn3)cc(C(=O)Nc3ncccn3)cc2o1 | – | – | – | > 100000 | – | 4 | –
Cc1ccc(NC(=O)c2cc(Oc3cnc(C(=O)N(C)C)cn3)c3cc(C)oc3c2)nc1 | 21.5 | 215 (≈ 92.8 µg/mL) | < 10.6 | 477 | – | 2 | –
CS(=O)(=O)c1ccc([C@@H](CC2CCCC2)C(=O)Nc2nccs2)cc1 [Ro-281675] | – | – | – | – | 235 | – | –
Cc1cc2c(Oc3cnc(C(=O)N(C)C)cn3)cc(C(=O)Nc3cnccn3)cc2o1 | 30 | 30 (≈ 12.6 µg/mL) | 15 | 391 | – | 60 | –
Cc1cc2c(Oc3cnc(C(=O)N(C)C)cn3)cc(C(=O)Nc3ccn(C)n3)cc2o1 | 15.4 | 540 (≈ 227 µg/mL) | < 8.2 | 331 | – | 8 | –
CS(=O)(=O)c1ccc([C@@H](C[C@H]2CCC(=O)C2)C(=O)Nc2cnccn2)cc1Cl [PIRAGLIATIN] | – | – | – | – | 100 | – | Activity [12]: Active

Further molecules by falling EC50 [5], results first:

Papp [1] [×10⁻⁶ cm/s] | solubility kinetic [2] [µM] | CLint scaled [4] [mL/min/kg] | EC50 [5] [nM] | EC50 [6] [nM] | Structure (SMILES) | inhibition at 10 µM [11] [%] | also measured
13.3 | 24 (≈ 11.3 µg/mL) | 18.2 | 261 | – | Cc1cnc(NC(=O)c2cc(Oc3cnc(C(=O)N4CCCCC4)cn3)c3cc(C)oc3c2)cn1 | 5 | –
15.8 | 25 (≈ 11.2 µg/mL) | < 8 | 127 | – | COc1cnc(NC(=O)c2cc(Oc3cnc(C(=O)N(C)C)cn3)c3cc(C)oc3c2)cn1 | 6 | –
– | – | – | 122 | 390 | COc1ccc2nc(NC(=O)[C@H](CC3CCCC3)c3ccc(S(=O)(=O)N4CCN(C)CC4)cc3)sc2n1 | – | Ratio EC50 [10]: < 4
5.9 | – | 17 | 92 | – | Cc1cnc(NC(=O)c2cc(Oc3ccc(C(=O)N(C)C)cc3)c3cc(C)oc3c2)cn1 | – | –
– | – | – | 88 | 187 | COCc1ccc(Oc2cc3[nH]c(-c4ccccn4)nc3cc2[C@H]2CCCN2C(C)=O)cn1 | – | Ratio EC50 [10]: < 4
– | – | – | 66 | – | Cc1csc(NC(=O)c2cc(Sc3nccn3C)c(F)cc2N)n1 | – | –
